The values that follow come from paper PMC9881158, “The DEAD-box protein Dbp6 is an ATPase and RNA annealase interacting with the peptidyl transferase center (PTC) of the ribosome” (Nucleic Acids Research, 2023).

In data set [1] the target is T1, Dbp6 (Saccharomyces cerevisiae, UniProt P53734).
T1 construct: full-length ORF, His6 tag (modified pET-15b, pET-Dbp6), kept; E. coli Rosetta λDE3; ca. 73 kDa; size exclusion fraction, mainly monomer / dimer
T1 sequence (P53734 1-629): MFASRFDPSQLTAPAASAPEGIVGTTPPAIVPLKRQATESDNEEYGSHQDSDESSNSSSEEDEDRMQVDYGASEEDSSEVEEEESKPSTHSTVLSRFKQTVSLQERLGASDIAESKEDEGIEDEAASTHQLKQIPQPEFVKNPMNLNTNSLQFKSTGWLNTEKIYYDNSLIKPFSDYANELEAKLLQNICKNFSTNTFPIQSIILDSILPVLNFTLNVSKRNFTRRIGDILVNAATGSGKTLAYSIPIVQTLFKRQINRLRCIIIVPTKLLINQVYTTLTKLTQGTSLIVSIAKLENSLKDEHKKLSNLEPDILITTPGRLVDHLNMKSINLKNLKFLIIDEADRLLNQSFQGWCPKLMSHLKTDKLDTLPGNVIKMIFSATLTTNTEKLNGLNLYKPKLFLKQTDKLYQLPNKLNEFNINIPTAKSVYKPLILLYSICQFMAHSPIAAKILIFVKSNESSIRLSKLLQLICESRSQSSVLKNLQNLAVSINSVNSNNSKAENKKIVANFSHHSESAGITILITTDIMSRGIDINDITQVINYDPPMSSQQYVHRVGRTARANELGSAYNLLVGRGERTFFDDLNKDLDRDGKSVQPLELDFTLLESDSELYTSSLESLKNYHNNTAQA
As to the kind of experiment: ATPase assay, TLC of [α-32P]-ADP. As to conditions: 100 μM ATP, 0.8 μM protein, 2 μM ss58-mer RNA, MgCl2 2.5 mM, pH 8, 30°C; trace E. coli ATPase not excluded by the authors. The data set is classed as biochemical.

Data set [2] concerns the target T1, Dbp6. As to the kind of experiment: RNA strand annealing assay (ss38-mer / ss58-mer), effect of nucleotide. The data set is classed as biochemical. The following applies: 5 mM ADP, 0.25 μM protein, MgCl2 2.5 mM, pH 8, 30°C; indirect read-out.
Data set [3] concerns the target T1, Dbp6. As to the kind of experiment: EMSA, effect on Dbp6 binding to hemi-duplex RNA ds38/[…]. As to conditions: 0.5-5 mM nucleotide, 0.5 μM protein, 1 nM RNA, MgCl2 2.5 mM, pH 8, 30°C; indirect read-out.
Data set [4] concerns the target T2, Dbp6 (Saccharomyces cerevisiae, UniProt P53734 1-629).
T2 sequence: T1 sequence (P53734 1-629)
As to the kind of experiment: EMSA; high affinity; no nucleotide; EMSA: 1 nM 32P-RNA, RB 1x (composition not in the material), RNasin, 15 min at 30 C, native PAGE in TBE; bridging: 0.8 uM Dbp6, RB 1x, 15 min at 30 C. The following applies: protein: recombinant; tags: N-terminal His6; label: 32P on ss38-mer; 3' overhang 20 nt on strand 1; 38 bp region with one C-C mismatch.

With `Nc1ncnc2c1ncn2[C@@H]1O[C@H](COP(=O)(O)OP(=O)(O)OP(=O)(O)O)[C@@H](O)[C@H]1O` [ATP], the “ATPase assay, TLC of [α-32P]-ADP” value on Dbp6 [1] is reported as “This ATPase activity could be attributed to Dbp6”.

Regarding `Nc1ncnc2c1ncn2[C@@H]1O[C@H](COP(=O)(O)OP(=O)(O)O)[C@@H](O)[C@H]1O` [ADP], the “RNA strand annealing assay (ss38-mer / ss58-mer), effect of nucleotide” value at Dbp6 [2] is “In contrast, ADP addition increased the annealing activity of Dbp6”.

Regarding `Nc1ncnc2c1ncn2[C@@H]1O[C@H](COP(=O)(O)OP(=O)(O)OP(O)(O)=S)[C@@H](O)[C@H]1O` [ATPγS], the “EMSA, effect on Dbp6 binding to hemi-duplex RNA ds38/58” value at Dbp6 [3] is “ATPγS had an even stronger effect on Dbp6 binding to the hemi-duplex than ATP”.

B1: ds38/58 hemi-duplex (dsRNA)
RNA 1: GGGAGACCGGAAUUCAUCAUUUCAGUGUAGCGGUUCUGACGUGCAAAUCGAUCGUCGA
RNA 2: CAGAACCGCUACACUGAAAUGAUCAAUUCCGGUCUCCC
Turning to B1, the binding result with Dbp6 [4] is “binds”.
